Here are results for 2 molecules from ChEMBL document CHEMBL1147787, “Synthesis and preliminary antitumor activity evaluation of a DHA and doxorubicin conjugate” (Bioorg Med Chem Lett, 2006).

Calls of active or inactive are those of the source. No cut-off for these calls is given here.

Experiment [1] deals with L1210. The experiment can be described thus: Antitumor activity against mouse L1210 cell line assessed as inhibition of [3H]thymidine incorporation. The class given is functional, cell-based. For orientation: Dividing cells build labelled thymidine or BrdU into new DNA.
Experiment [2] concerns Mus musculus. The experiment can be described thus: Antitumor activity in BDF1 mouse bearing L1210 leukemia assessed as survival for 30 days at 32 ug/kg, ip. The class given is functional, organism-based.
Experiment [3] deals with Mus musculus. The experiment can be described thus: Antitumor activity in BDF1 mouse bearing L1210 leukemia assessed as survival for 30 days at 8 ug/kg, ip. In kind it is functional, organism-based.
In experiment [4] the test system is Mus musculus. The experiment can be described thus: Antitumor activity in BDF1 mouse bearing B16 melanoma assessed as loss of body weight at 30 mg/kg, ip. Conditions: route intraperitoneal. In kind it is functional.
In experiment [5] the test system is Mus musculus. Kind of experiment: Antitumor activity in BDF1 mouse bearing L1210 leukemia assessed as loss of body weight at 32 ug/kg, ip. The class given is functional.
The subject of experiment [6] is Mus musculus. The experiment can be described thus: Antitumor activity in BDF1 mouse bearing L1210 leukemia assessed as loss of body weight at 16 ug/kg, ip. The class given is functional.
Experiment [7] deals with Mus musculus. Kind of experiment: Antitumor activity in BDF1 mouse bearing L1210 leukemia assessed as loss of body weight at 8 ug/kg, ip. The class given is functional.
Experiment [8] deals with Mus musculus. The experiment can be described thus: Antitumor activity in BDF1 mouse bearing L1210 leukemia assessed as increase in life span at 32 ug/kg, ip relative to control. In kind it is functional.
In experiment [9] the test system is Mus musculus. Kind of experiment: Antitumor activity in BDF1 mouse bearing L1210 leukemia assessed as increase in life span at 16 ug/kg, ip relative to control. The class given is functional.
In experiment [10] the test system is Mus musculus. Kind of experiment: Antitumor activity in BDF1 mouse bearing L1210 leukemia assessed as increase in life span at 8 ug/kg, ip relative to control. In kind it is functional.
Experiment [11] concerns Mus musculus. Kind of experiment: Antitumor activity in BDF1 mouse bearing B16 melanoma assessed as loss of body weight at 20 mg/kg, ip. In kind it is functional. The following applies: route intraperitoneal.
Experiment [12] has as its system Mus musculus. The experiment can be described thus: Antitumor activity in BDF1 mouse bearing B16 melanoma assessed as inhibition of tumor growth at 30 mg/kg, ip relative to control. The class given is functional. Conditions: route intraperitoneal.
For experiment [13], the system named is Mus musculus. The experiment can be described thus: Antitumor activity in BDF1 mouse bearing B16 melanoma assessed as inhibition of tumor growth at 20 mg/kg, ip relative to control. The class given is functional. Conditions: route intraperitoneal.
The test system of experiment [14] is Mus musculus. Kind of experiment: Antitumor activity in BDF1 mouse bearing L1210 leukemia assessed as increase in life span at 5 ug/kg, ip relative to control. The class given is functional.
Experiment [15] relates to Mus musculus. The experiment can be described thus: Antitumor activity in BDF1 mouse bearing L1210 leukemia assessed as survival for 30 days at 5 ug/kg, ip. The class given is functional, organism-based.
Experiment [16] deals with Mus musculus. Kind of experiment: Antitumor activity in BDF1 mouse bearing L1210 leukemia assessed as loss of body weight at 5 ug/kg, ip. In kind it is functional.
In experiment [17] the test system is Mus musculus. Kind of experiment: Antitumor activity in BDF1 mouse bearing B16 melanoma assessed as loss of body weight at 5 mg/kg, ip. The following applies: route intraperitoneal. In kind it is functional.
Experiment [18] concerns Mus musculus. Kind of experiment: Antitumor activity in BDF1 mouse bearing B16 melanoma assessed as inhibition of tumor growth at 5 mg/kg, ip relative to control. In kind it is functional. The following applies: route intraperitoneal.

As to `CC/C=C/C/C=C/C/C=C/C/C=C/C/C=C/C/C=C/CCC(=O)N/N=C(\CO)[C@]1(O)Cc2c(O)c3c(c(O)c2[C@@H](OC2C[C@H](N)[C@H](O)[C@H](C)O2)C1)C(=O)c1c(OC)cccc1C3=O.Cl` (stereo partly specified), the IC50 – broadly, the point on the concentration scale where inhibition reaches its midpoint – in experiment [1] came out at 1400 nM. The result in [2] and in experiment [3] was inactive. Moreover, the Activity in [4] is reported as -6%; in experiment [5], -11%; in experiment [6] it was -4%; in experiment [7], -2%; in [8], 80%; in experiment [9], 107%. Also, the Activity was 53% in experiment [10] and -6% in experiment [11]. For the same molecule, the inhibition in vivo (in general, the relative decrease from the control value, in per cent) at 30 mg/kg in experiment [12] was determined as 70%. In addition, the inhibition in vivo at 20 mg/kg in [13] is 53%.

For the molecule `COc1cccc2c1C(=O)c1c(O)c3c(c(O)c1C2=O)C[C@@](O)(C(=O)CO)C[C@@H]3O[C@H]1C[C@H](N)[C@H](O)[C@H](C)O1` [DOXORUBICIN], the Activity in [14] is given as 53%; in experiment [7], -19%; in [16], -7%; in [17] it was -10%. For the same molecule, the IC50 in experiment [1] was 150 nM. The result in experiment [3] and in experiment [15] was inactive. In addition, the inhibition in vivo at 5 mg/kg in experiment [18] was 35%.
